Results taken from patent publication US7772252B2, “Heterocyclic substituted carbonyl derivatives and their use as dopamine D3 receptor ligands” (Aventis Pharmaceuticals Inc., priority 2001, dated 2010).
Read-outs that look alike come from different tables or passages of the source.

Biological target: T1, cloned human dopamine D3 receptors (Homo sapiens, UniProt P35462)
T1 construct: expressed in transfected cells; membrane homogenate
Experiment: [N-Methyl-3H]Spiroperidol binding to cloned human dopamine D3 receptors
Outline: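 Stably transfected CHO cells expressing cloned human D3 receptor were used as membranes homogenized in 10% DMSO. Ligand was [N-methyl-3H]spiroperidol displacement.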

T1 sequence (P35462 whole entry): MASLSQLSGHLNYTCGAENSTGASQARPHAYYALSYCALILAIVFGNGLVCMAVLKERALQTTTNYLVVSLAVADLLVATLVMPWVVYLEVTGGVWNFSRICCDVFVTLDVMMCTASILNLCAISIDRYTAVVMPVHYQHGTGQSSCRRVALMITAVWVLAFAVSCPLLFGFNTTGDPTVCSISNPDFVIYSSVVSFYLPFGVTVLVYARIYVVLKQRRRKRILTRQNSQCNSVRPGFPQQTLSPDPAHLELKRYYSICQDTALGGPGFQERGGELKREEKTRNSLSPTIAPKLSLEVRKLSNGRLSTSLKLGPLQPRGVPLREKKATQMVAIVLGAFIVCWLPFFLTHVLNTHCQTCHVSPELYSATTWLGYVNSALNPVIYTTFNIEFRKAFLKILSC

Structure (SMILES) | Ki (read-out: D3 Ki) [nM] | Ki (read-out: d3Ki) [nM]
CN(C)Cc1ccc(CSCCNC(=O)C2CC2CN2CCC(c3noc4ccsc34)CC2)o1 (racemic) [compound 831740] | 2.96 | –
CC1CCC(NC(=O)C2CC2CN2CCN(c3onc4c3CCc3ccccc3-4)CC2)CC1 (racemic) [compound 830121] | 47.1 | –
O=C([C@@H]1C[C@H]1CN1CCC(c2nsc3cc(Br)ccc23)CC1)N1CCCC(Cn2ccnc2)C1 (mixture of isomers) [A002329099] | 2.06 | –
CC(C)(C)c1ccc(CCNC(=O)[C@@H]2C[C@H]2CN2CCC(c3noc4ccsc34)CC2)cc1 [compound 833129] | 95.3 | –
COc1cccc2c(C3CCN(C[C@@H]4C[C@H]4C(=O)NCCCc4cccnc4)CC3)noc12 [compound 832104] | 620 | –
CN1CCN(CCCNC(=O)[C@@H]2C[C@H]2CN2CCC(c3nn(C)c4c(C(F)(F)F)cccc34)CC2)CC1 [A002439259] | 39 | –
Cn1nc(C2CCN(C[C@@H]3C[C@H]3C(=O)N3CCC(N4CCCCC4)CC3)CC2)c2cccc(C(F)(F)F)c21 [compound 833091] | 118 | –
O=C([C@@H]1C[C@H]1CN1CCC(c2noc3ccsc23)CC1)N1CCC(Oc2ccc(Cl)cc2)CC1 [compound 832723] | 54 | –
O=C(NC1CCN(Cc2ccccc2Cl)CC1)[C@@H]1C[C@H]1CN1CCC(c2noc3ccsc23)CC1 [compound 832730] | 3.62 | –
CC(C)COC(=O)n1c(CCCNC(=O)C2CC2CN2CCC(c3noc4ccsc34)CC2)nc2ccccc21 (racemic) [compound 831621] | 70.3 | –
COc1ccc2c(c1)c(N1CCN(C[C@@H]3C[C@H]3C(=O)NC3CCN(Cc4ccc(F)c(F)c4)CC3)CC1)nn2C [compound 833626] | 2.17 | –
C[C@H]1CC[C@H](NC(=O)[C@@H]2C[C@H]2CN2CCC(c3nn(-c4cccnc4)c4ccccc34)CC2)CC1 [compound 833695] | 176 | –
CN1CCN(CCCNC(=O)[C@@H]2C[C@H]2CN2CCC(c3nn(-c4ccccc4)c4ccsc34)CC2)CC1 [A002439263] | 30.6 | –
CC(C)(C)OC(=O)N1CCN(CCNC(=O)[C@@H]2C[C@H]2CN2CCN(c3csc4cc(C(F)(F)F)ccc34)CC2)CC1 [compound 833277] | 16.7 | –
C[C@H]1CC[C@H](NC(=O)[C@@H]2C[C@H]2CN2CCC(c3n[nH]c4cc(C(F)(F)F)ccc34)CC2)CC1 [compound 833941] | 8.98 | –
CCC1CCC(NC(=O)C2CC2CN2CCN(CCc3ccccc3)CC2)CC1 (racemic) [compound 827237] | 153 | –
COc1cccc2c(C3CCN(C[C@@H]4C[C@H]4C(=O)NC4CC5CCC4(C)C5(C)C)CC3)nn(C)c12 (stereo partly drawn) [compound 834055] | 62 | –

Structure (SMILES) | Ki (read-out: D3 Ki) [nM] | Ki (read-out: d3Ki) [nM]
O=C([C@@H]1C[C@H]1CN1CCN(c2csc3cc(C(F)(F)F)ccc23)CC1)N1CCCC(Cn2ccnc2)C1 (mixture of isomers) [compound 832268] | 2.62 | –
O=C(C1CC1CN1CCC(c2noc3ccsc23)CC1)N1CC=CC1 (racemic) [compound 829594] | 364 | –
O=C(NCCCn1ccnc1)[C@@H]1C[C@H]1CN1CCC(c2noc3ccc(C(F)(F)F)cc23)CC1 [A002200837] | 0.368 | –
CN1CCCN(C(=O)C2CC2CN2CCC(c3noc4ccsc34)CC2)CC1 (racemic) [compound 829597] | 226 | –
O=C(NC1CCN(Cc2ccccc2Cl)CC1)[C@@H]1C[C@H]1CN1CCN(c2csc3cc(C(F)(F)F)ccc23)CC1 [compound 832741] | 6.03 | –
CN(C)CCCNC(=O)[C@@H]1C[C@H]1CN1CCN(c2csc3cc(C(F)(F)F)ccc23)CC1 [compound 831888] | 17.5 | –
O=C([C@@H]1C[C@H]1CN1CCC(c2csc3cc(C(F)(F)F)ccc23)CC1)N1CCC(Cn2ccnc2)CC1 [compound 834017] | 1.62 | –
O=C(NCCN1CCCC1)[C@@H]1C[C@H]1CN1CCN(c2csc3cc(C(F)(F)F)ccc23)CC1 [compound 831886] | 16.8 | –
CCCc1cc(N2CCN(CC3CC3C(=O)NC3CCC(CC)CC3)CC2)nc(C(C)(C)C)n1 (racemic) [compound 817274] | 4.49 | –
O=C(Cc1ccccc1)NNC(=O)C1CC1CN1CCC(c2noc3ccsc23)CC1 (racemic) [compound 831452] | 115 | –
COc1ccc2c(c1)c(N1CCN(C[C@@H]3C[C@H]3C(=O)NCCCn3cnc4ccccc43)CC1)nn2C [A002243383] | 25.1 | –
CC1CCN(CCCNC(=O)[C@@H]2C[C@H]2CN2CCN(c3nn(-c4ccc(OC(F)(F)F)cc4)c4ccsc34)CC2)CC1 [compound 834207] | 71.4 | –
Cc1cn(CCCNC(=O)[C@@H]2C[C@H]2CN2CCC(c3noc4ccsc34)CC2)cn1 [compound 831937] | 35 | –
CN1CCCC1CCNC(=O)[C@@H]1C[C@H]1CN1CCC(c2noc3ccsc23)CC1 (single isomer, unassigned) [compound 832513] | 55.4 | –
CC[C@H]1CC[C@H](NC(=O)[C@@H]2C[C@H]2CN2CCN(c3nn(-c4ccc(C(F)(F)F)cc4)c4ccccc34)CC2)CC1 [compound 831226] | 26.7 | –
O=C(NCCc1cccs1)C1CC1CN1CCC(c2noc3ccsc23)CC1 (racemic) [compound 831385] | 22.7 | –

The remaining lines, values ahead:

Ki (read-out: D3 Ki) [nM] | Ki (read-out: d3Ki) [nM] | Structure (SMILES)
42.8 | – | COc1c(F)ccc2c(C3CCN(C[C@@H]4C[C@H]4C(=O)N[C@H]4CC[C@H](O)CC4)CC3)noc12 [compound 831952]
520 | – | Cn1nc(C2CCN(C[C@@H]3C[C@H]3C(=O)NCCCN3CCCCC3)CC2)c2sccc21 [A002436290]
70.8 | – | COc1ccc2c(c1)c(N1CCN(C[C@@H]3C[C@H]3C(=O)N3CCN(Cc4ccc(C)cc4)CC3)CC1)nn2C [compound 833125]
4.06 | – | O=C(NC1CCN(C(=O)Nc2ccc(Cl)cc2)CC1)C1CC1CN1CCC(c2noc3ccsc23)CC1 (racemic) [832575ES]
2.32 | – | O=C(NC1CCN(Cc2ncc[nH]2)CC1)[C@@H]1C[C@H]1CN1CCC(c2noc3ccsc23)CC1 [compound 833382]
173 | – | O=C(NCCNC(=O)C1CC1CN1CCC(c2noc3ccsc23)CC1)OCc1ccccc1 (racemic) [compound 831649]
111 | – | O=C(Nc1ccccn1)C1CC1CN1CCC(c2noc3ccsc23)CC1 (racemic) [compound 827397]
207 | – | O=C(N1CCCC1)C1(CCN2CCC(c3noc4ccsc34)CC2)CC1 [compound 832239]
8.85 | – | O=C(NCCc1cccc(C(F)(F)F)c1)[C@@H]1C[C@H]1CN1CCC(c2noc3ccsc23)CC1 [compound 833130]
7.46 | – | O=C(NC1CCN(Cc2ccc(Cl)c(Cl)c2)CC1)C1CC1CN1CCC(c2noc3ccsc23)CC1 (racemic) [compound 831998]
46.7 | – | Cc1ncc([N+](=O)[O-])n1CCNC(=O)[C@@H]1C[C@H]1CN1CCC(c2noc3ccsc23)CC1 [compound 831379]
27.3 | – | O=C(C1CC1CN1CCC(c2noc3ccsc23)CC1)N1CCC(Oc2ccc(Cl)cc2)CC1 (racemic) [compound 831794]
– | 67.4 | C[C@H]1CC[C@H](NC(=O)CCCN2CCN(c3csc4cc(C(F)(F)F)ccc34)CC2)CC1 [compound 826804]
3.46 | – | NCCN1CCN(C(=O)[C@@H]2C[C@H]2CN2CCN(c3csc4cc(C(F)(F)F)ccc34)CC2)CC1 [compound 833323]
35.6 | – | O=C(NCCCn1ccnc1-c1ccccc1)[C@@H]1C[C@H]1CN1CCC(c2noc3ccsc23)CC1 [compound 831378]
104 | – | CN1CCN(CCCNC(=O)[C@@H]2C[C@H]2CN2CCC(c3nn(C)c4ccsc34)CC2)CC1 [A002438640]
1.37 | – | COc1ccc2c(c1)c(N1CCN(C[C@@H]3C[C@H]3C(=O)NC3CCN(CC4CC4)CC3)CC1)nn2C [compound 832744]
101 | – | O=C(NCCCn1ccnc1)[C@@H]1C[C@H]1CN1CCC(c2nsc3cc(Br)ccc23)CC1 [A002329097]
0.226 | – | CC(C)(C)c1ccc(CN2CCN(C(=O)C3CC3CN3CCC(c4noc5ccsc45)CC3)CC2)cc1 (racemic) [compound 832157]
2.51 | – | O=C(NC1CCN(Cc2ccc(F)cc2)CC1)C1CC1CN1CCC(c2noc3ccsc23)CC1 (racemic) [compound 831993]
173 | – | CC[C@H]1CC[C@H](NC(=O)C2(CCN3CCN(c4csc5cc(C(F)(F)F)ccc45)CC3)CC2)CC1 [compound 832517]
0.837 | – | O=C(NCCCn1ccnc1)[C@@H]1C[C@H]1CN1CCN(c2csc3cc(Cl)ccc23)CC1 [compound 834172]
88.8 | – | O=C(NCCCN1CCSCC1)[C@@H]1C[C@H]1CN1CCN(c2nn(-c3ccc(C(F)(F)F)cc3)c3ccsc23)CC1 [compound 834206]
3.11 | – | O=C(NC1CCN(Cc2cc(F)ccc2F)CC1)[C@@H]1C[C@H]1CN1CCC(c2noc3ccsc23)CC1 [compound 833168]
2.78 | – | O=C([C@@H]1C[C@H]1CN1CCC(c2noc3ccsc23)CC1)N1CCc2ccccc2C1 [compound 831199]
126 | – | O=C([C@@H]1C[C@H]1CN1CCC(c2noc3cc(C(F)(F)F)ccc23)CC1)N1CCC[C@@H](Cn2ccnc2)C1 [A002287766]
160 | – | CN1CCN(CCCNC(=O)[C@@H]2C[C@H]2CN2CCN(c3nn(C)c4ccsc34)CC2)CC1 [A002329040]
1.72 | – | O=C(NC1CCN(Cc2cc(F)cc(F)c2)CC1)[C@@H]1C[C@H]1CN1CCC(c2noc3ccsc23)CC1 [compound 833166]
34.4 | – | O=C([C@@H]1C[C@H]1CN1CCC(c2noc3ccsc23)CC1)N1CCC(c2noc3ccsc23)CC1 [compound 831345]
2.63 | – | O=C(NC1CCN(CC2CC2)CC1)C1CC1CN1CCC(c2noc3ccsc23)CC1 (racemic) [compound 832341]
